For data set [1] the following is noted: in water; cited from earlier work.
A further data set has as its target T1, glucagon R (Homo sapiens, UniProt P47871).
T1 construct: host or cells: CHO cells
The data set is described as follows: DiscoveRx LeadHunter cellular assay, cAMP stimulation, glucagon receptor. It counts as cell-based. The method, then: (§1) § means superagonist A further series of cellular assays were carried out using standard cellular assays (DiscoveRx, LeadHunter assays) using readout of cAMP stimulation or arrestin activation. Compounds were weighed precisely in an amount of approximately 1 mg and shipped to DiscoveRx for dilution and assay.

A further data set deals with db/db mice. In words: In vivo assay in db/db mice (blood glucose, body weight, food consumption). To be noted: for db/db mice - Mean Blood Glucose, 10 hr: 10 hr after first dose; for db/db mice - Mean Blood Glucose, 24 hr: 24 hr after first dose; for db/db mice - Mean Blood Glucose, 48 hr: 48 hr after first dose. How it is done: The 60 female db/db B6BKS (D) Leprdb/J (strain 000697) mice for this study were approximately 8 to 9 weeks old at arrival (Jackson Laboratory, Bar Harbor, Me.). […] One group of 8 female mice served as the vehicle control and received the vehicle, 0.2% BSA in saline, pH 7.4. One additional group of 8 female mice received the positive control article, liraglutide, at a dose level of 50 nmoles/kg. The test articles, vehicle, and positive control article were administered on Day 1, at approximately 0, 7, and 24 hours during the study via subcutaneous injection at a dose volume of 6 mL/kg.
Clinical observations were conducted at receipt, prior to randomization, and daily from Days 1 to 5. Body weights were measured and recorded at receipt, prior to randomization, and daily from Days 1 to 5. Food consumption was measured and recorded daily from Days 1 to 5. Blood samples for glucose analysis were collected pretest (Day −3) and at 0, 1, 2, 4, 8, 10, 24, 48, 72, and 96 hours following the first dose on Day 1. At study termination all animals were euthanized and the carcasses were discarded without further evaluation.

Another data set addresses GLP-1 R (Homo sapiens, UniProt P43220). In words: DiscoveRx LeadHunter cellular assay, cAMP stimulation, GLP-1 receptor. It counts as cell-based. How it is done:
as §1

The values below come from patent US11065304B2, “Peptide pharmaceuticals for insulin resistance” (MEDERIS DIABETES, LLC, priority 2012, dated 2021).

For orientation: EC50 means the concentration needed to bring the measured effect to its halfway point.

T1 sequence (P47871 26-477): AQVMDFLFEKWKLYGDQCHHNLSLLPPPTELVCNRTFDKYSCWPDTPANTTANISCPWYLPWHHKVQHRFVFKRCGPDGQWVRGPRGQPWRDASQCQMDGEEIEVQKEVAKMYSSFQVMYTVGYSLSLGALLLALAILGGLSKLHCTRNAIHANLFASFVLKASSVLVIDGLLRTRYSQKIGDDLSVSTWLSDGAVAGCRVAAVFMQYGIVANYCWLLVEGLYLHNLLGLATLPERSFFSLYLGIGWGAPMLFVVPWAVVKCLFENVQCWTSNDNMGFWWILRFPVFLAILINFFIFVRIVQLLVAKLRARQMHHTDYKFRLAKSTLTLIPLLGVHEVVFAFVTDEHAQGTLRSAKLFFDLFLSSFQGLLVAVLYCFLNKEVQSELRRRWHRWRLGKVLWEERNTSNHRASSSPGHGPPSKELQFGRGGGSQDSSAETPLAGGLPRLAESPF
Sequence of GLP-1 R (P43220 24-463): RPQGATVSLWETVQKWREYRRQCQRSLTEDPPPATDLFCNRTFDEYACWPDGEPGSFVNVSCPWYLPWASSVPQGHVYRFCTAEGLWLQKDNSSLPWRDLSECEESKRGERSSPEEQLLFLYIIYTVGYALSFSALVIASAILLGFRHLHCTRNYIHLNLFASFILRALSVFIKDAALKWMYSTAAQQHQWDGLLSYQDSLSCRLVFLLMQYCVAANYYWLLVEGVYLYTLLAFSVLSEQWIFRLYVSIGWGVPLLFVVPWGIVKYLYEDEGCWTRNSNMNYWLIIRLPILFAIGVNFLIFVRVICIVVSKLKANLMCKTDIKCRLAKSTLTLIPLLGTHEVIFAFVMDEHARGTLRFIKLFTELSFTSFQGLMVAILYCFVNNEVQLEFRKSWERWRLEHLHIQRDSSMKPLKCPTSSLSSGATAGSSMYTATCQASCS

For `CCCCCCCCCCCCCCO[C@@H]1O[C@H](CO)[C@@H](O[C@@H]2O[C@@H](CO)[C@H](O)[C@@H](O)[C@@H]2O)[C@H](O)[C@H]1O` (stereo in doubt) [Tetradecyl maltoside], the “CMC (critical micelle concentration)” value in data set [1] was 0.01 mM.

For the compound `CCCCCCCCCCCCCO[C@@H]1O[C@H](CO)[C@@H](OC2OC(CO)C(O)C(O)C2O)[C@H](O)[C@H]1O` (stereo in doubt) [Tridecyl maltoside], the “CMC (critical micelle concentration)” value in data set [1] is recorded as 0.03 mM.

With `CCCCCCCCCCO[C@@H]1O[C@H](CO)[C@@H](O[C@H]2O[C@H](CO)[C@@H](O)[C@H](O)[C@H]2O)[C@H](O)[C@H]1O` [Decyl maltoside], in data set [1], the “CMC (critical micelle concentration)” value is given as 1.8 mM.

`CCCCCCCCCCCCO[C@@H]1O[C@H](CO)[C@@H](O[C@H]2O[C@H](CO)[C@@H](O)[C@H](O)[C@H]2O)[C@H](O)[C@H]1O` [Dodecyl-β-D-maltoside]: the “CMC (critical micelle concentration)” value in data set [1] is 0.17 mM.

On to `CCCCCCCCO[C@@H]1O[C@H](C(=O)NCCCC[C@H](NC(=O)[C@@H](NC(=O)[C@H](Cc2ccccc2)NC(=O)[C@H](CCC(=O)O)NC(=O)[C@@H]2CCCCNC(=O)CC[C@H](NC(=O)[C@H](CC(=O)O)NC(=O)[C@H](CC(C)C)NC(=O)[C@H](Cc3ccc(O)cc3)NC(=O)[C@H](CCCCN)NC(=O)[C@H](CO)NC(=O)[C@H](Cc3ccc(O)cc3)NC(=O)[C@H](CC(=O)O)NC(=O)[C@H](CO)NC(=O)[C@@H](NC(=O)[C@H](Cc3ccccc3)NC(=O)[C@@H](NC(=O)CNC(=O)[C@H](CCC(N)=O)NC(=O)C(C)(C)NC(=O)[C@@H](N)Cc3c[nH]cn3)[C@@H](C)O)[C@@H](C)O)C(=O)N[C@@H](CCC(N)=O)C(=O)N[C@@H](C)C(=O)N[C@@H](C)C(=O)N2)[C@@H](C)CC)C(=O)N[C@@H](Cc2c[nH]c3ccccc23)C(=O)N[C@@H](CC(C)C)C(=O)N[C@@H](CC(C)C)C(=O)N[C@@H](CCC(N)=O)C(=O)N[C@H](C(N)=O)[C@@H](C)O)[C@@H](O)[C@H](O)[C@H]1O` [EU-A992, His1-Aib2-Gln3-Gly4-Thr5-Phe6-Thr7-Ser8-Asp9-Tyr10-Ser11-Lys12-Tyr13-Leu14-Asp15-Glu*16-Gln17 Ala18-Ala19-Lys*20-Glu21-Phe22-Ile23-Lys(N-omega(1-octylbeta-D-glucuronyl))24-Trp25-Leu26-Leu27-Gln28-Thr29-NH2], for which, at glucagon R, it took 19 pM to reach a half-maximal effect (EC50). Besides, in the data set with db/db mice (250 nmole/kg s.c.), the “db/db mice - Mean Blood Glucose, 0 hr” value turned out to be 405 mg/dL; the “db/db mice - Mean Blood Glucose, 10 hr” value was found to be 104 mg/dL; the “db/db mice - Mean Blood Glucose, 24 hr” value came to 112 mg/dL; the “db/db mice - Mean Blood Glucose, 48 hr” value was 130 mg/dL.

As to `CCCCCCCCCCCCO[C@@H]1O[C@H](CO[C@H]2O[C@H](C(=O)NCCCC[C@H](NC(=O)[C@@H](NC(=O)[C@H](Cc3ccccc3)NC(=O)[C@H](CCC(=O)O)NC(=O)[C@@H]3CCCCNC(=O)CC[C@H](NC(=O)[C@H](CC(=O)O)NC(=O)[C@H](CC(C)C)NC(=O)[C@H](Cc4ccc(O)cc4)NC(=O)[C@H](CCCCN)NC(=O)[C@H](CO)NC(=O)[C@H](Cc4ccc(O)cc4)NC(=O)[C@H](CC(=O)O)NC(=O)[C@H](CO)NC(=O)[C@@H](NC(=O)[C@H](Cc4ccccc4)NC(=O)[C@@H](NC(=O)CNC(=O)[C@H](CCC(N)=O)NC(=O)C(C)(C)NC(=O)[C@@H](N)Cc4c[nH]cn4)[C@@H](C)O)[C@@H](C)O)C(=O)N[C@@H](CCC(N)=O)C(=O)N[C@@H](C)C(=O)N[C@@H](C)C(=O)N3)[C@@H](C)CC)C(=O)N[C@@H](Cc3c[nH]c4ccccc34)C(=O)N[C@@H](CC(C)C)C(=O)N[C@@H](CC(C)C)C(=O)N[C@@H](CCC(N)=O)C(=O)N[C@H](C(N)=O)[C@@H](C)O)[C@H](O)[C@H](O)[C@H]2O)[C@@H](O)[C@H](O)[C@H]1O` [EU-A1023, His1-Aib2-Gln3-Gly4-Thr5-Phe6-Thr7-Ser8-Asp9-Tyr10-Ser11-Lys12-Tyr13-Leu14-Asp15-Glu*16-Gln17 Ala18-Ala19-Lys*20-Glu21-Phe22-Ile23-Lys(N-omega(1-dodecylbeta-D-melibiouronyl))24-Trp25-Leu26-Leu27-Gln28-Thr29-NH2], in the data set on db/db mice (50 nmole/kg s.c.), the “db/db mice - Mean Blood Glucose, 0 hr” value was 507 mg/dL; the “db/db mice - Mean Blood Glucose, 10 hr” value amounted to 310 mg/dL; the “db/db mice - Mean Blood Glucose, 24 hr” value is recorded as 355 mg/dL; the “db/db mice - Mean Blood Glucose, 48 hr” value came out at 375 mg/dL. Moreover, in the data set on db/db mice (250 nmole/kg s.c.), the “db/db mice - Mean Blood Glucose, 0 hr” value is reported as 508 mg/dL; the “db/db mice - Mean Blood Glucose, 10 hr” value was determined as 264 mg/dL; the “db/db mice - Mean Blood Glucose, 24 hr” value is on record as 194 mg/dL; the “db/db mice - Mean Blood Glucose, 48 hr” value stood at 375 mg/dL.

On glucagon R, `CCCCCCCCCCO[C@@H]1O[C@H](C(=O)NCCCC[C@H](NC(=O)[C@@H](NC(=O)[C@H](Cc2ccccc2)NC(=O)[C@H](CCC(=O)O)NC(=O)[C@@H]2CCCCNC(=O)CC[C@H](NC(=O)[C@H](CC(=O)O)NC(=O)[C@H](CC(C)C)NC(=O)[C@H](Cc3ccc(O)cc3)NC(=O)[C@H](CCCCN)NC(=O)[C@H](CO)NC(=O)[C@H](Cc3ccc(O)cc3)NC(=O)[C@H](CC(=O)O)NC(=O)[C@H](CO)NC(=O)[C@@H](NC(=O)[C@H](Cc3ccccc3)NC(=O)[C@@H](NC(=O)CNC(=O)[C@H](CCC(N)=O)NC(=O)C(C)(C)NC(=O)[C@@H](N)Cc3c[nH]cn3)[C@@H](C)O)[C@@H](C)O)C(=O)N[C@@H](CCC(N)=O)C(=O)N[C@@H](C)C(=O)N[C@@H](C)C(=O)N2)[C@@H](C)CC)C(=O)N[C@@H](Cc2c[nH]c3ccccc23)C(=O)N[C@@H](CC(C)C)C(=O)N[C@@H](CC(C)C)C(=O)N[C@@H](CCC(N)=O)C(=O)N[C@H](C(N)=O)[C@@H](C)O)[C@@H](O)[C@H](O)[C@H]1O` [EU-A1167, His1-Aib2-Gln3-Gly4-Thr5-Phe6-Thr7-Ser8-Asp9-Tyr10-Ser11-Lys12-Tyr13-Leu14-Asp15-Glu*16-Gln17 Ala18-Ala19-Lys*20-Glu21-Phe22-Ile23-Lys(N-omega(1-decylbeta-D-glucuronyl))24-Trp25-Leu26-Leu27-Gln28-Thr29-NH2] showed a 50% effective concentration (EC50) of 19 pM. This compound also showed an EC50 at GLP-1 R of 13 pM. For the same compound, in the data set with db/db mice (250 nmole/kg s.c.), the “db/db mice - Mean Blood Glucose, 0 hr” value is 379 mg/dL; the “db/db mice - Mean Blood Glucose, 10 hr” value is 171 mg/dL; the “db/db mice - Mean Blood Glucose, 24 hr” value is listed as 117 mg/dL; the “db/db mice - Mean Blood Glucose, 48 hr” value turned out to be 113 mg/dL.

`CCCCCCCCO[C@@H]1O[C@H](CO)[C@@H](O[C@H]2O[C@H](CO)[C@@H](O)[C@H](O)[C@H]2O)[C@H](O)[C@H]1O` [Octyl maltoside]: the “CMC (critical micelle concentration)” value in data set [1] was 19.5 mM.

Take Sucrose dodecanoate: the “CMC (critical micelle concentration)” value in data set [1] is listed as 0.3 mM.
